From ChEMBL document CHEMBL1133545, “Inhibition of monoamine oxidases by functionalized coumarin derivatives: biological activities, QSARs, and 3D-QSARs” (J Med Chem, 2000)

Assays:
[1] = molecular target: T1, Amine oxidase [flavin-containing] A (Rattus norvegicus, UniProt P21396)
T1 sequence (P21396 whole entry): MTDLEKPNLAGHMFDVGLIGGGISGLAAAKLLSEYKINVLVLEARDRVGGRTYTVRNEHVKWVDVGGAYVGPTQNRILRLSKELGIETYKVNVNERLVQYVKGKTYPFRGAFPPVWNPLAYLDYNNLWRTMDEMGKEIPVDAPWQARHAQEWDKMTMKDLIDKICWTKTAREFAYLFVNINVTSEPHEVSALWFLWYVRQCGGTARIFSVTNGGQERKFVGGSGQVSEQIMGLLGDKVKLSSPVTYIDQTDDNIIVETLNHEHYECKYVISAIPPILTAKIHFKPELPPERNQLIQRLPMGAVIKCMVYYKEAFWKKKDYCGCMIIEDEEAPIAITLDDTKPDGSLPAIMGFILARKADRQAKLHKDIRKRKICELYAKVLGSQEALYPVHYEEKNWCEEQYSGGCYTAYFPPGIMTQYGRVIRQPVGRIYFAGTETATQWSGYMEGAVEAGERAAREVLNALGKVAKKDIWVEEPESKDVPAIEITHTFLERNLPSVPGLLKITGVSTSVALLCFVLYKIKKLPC

[2] = molecular target: T2, Amine oxidase [flavin-containing] B (Rattus norvegicus, UniProt P19643)
T2 sequence (P19643 whole entry): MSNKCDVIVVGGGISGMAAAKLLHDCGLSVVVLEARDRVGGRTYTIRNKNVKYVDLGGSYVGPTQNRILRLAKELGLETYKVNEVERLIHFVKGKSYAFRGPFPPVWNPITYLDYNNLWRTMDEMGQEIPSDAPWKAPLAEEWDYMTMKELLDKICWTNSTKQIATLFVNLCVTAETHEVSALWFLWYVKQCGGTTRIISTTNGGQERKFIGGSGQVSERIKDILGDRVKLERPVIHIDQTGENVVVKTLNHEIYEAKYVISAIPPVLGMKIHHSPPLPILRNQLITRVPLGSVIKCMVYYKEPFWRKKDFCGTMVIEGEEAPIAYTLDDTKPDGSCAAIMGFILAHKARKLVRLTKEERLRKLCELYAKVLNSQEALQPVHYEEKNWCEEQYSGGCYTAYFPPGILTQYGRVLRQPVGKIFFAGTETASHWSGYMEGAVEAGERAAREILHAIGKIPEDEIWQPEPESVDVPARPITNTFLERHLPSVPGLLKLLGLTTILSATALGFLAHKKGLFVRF

[3] = molecular target: T1, Amine oxidase [flavin-containing] A; remark: listed apart in the source
Description: Compound was tested for its inhibitory effect on Monoamine oxidase A at 50 uM

[4] = molecular target: T2, Amine oxidase [flavin-containing] B; remark: listed apart in the source
[5] = molecular target: T1, Amine oxidase [flavin-containing] A; remark: listed apart in the source
Description: Compound was tested for its inhibitory effect on Monoamine oxidase A at 1 uM

[6] = molecular target: T2, Amine oxidase [flavin-containing] B; remark: listed apart in the source
Description: (§1) Compound was tested for its inhibitory effect on Monoamine oxidase B at 3 uM

[7] = molecular target: T1, Amine oxidase [flavin-containing] A; remark: listed apart in the source
Description: Compound was tested for its inhibitory effect on Monoamine oxidase A at 3 uM

[8] = molecular target: T2, Amine oxidase [flavin-containing] B; remark: listed apart in the source
Description: Compound was tested for its inhibitory effect on Monoamine oxidase B at 40 uM

[9] = molecular target: T2, Amine oxidase [flavin-containing] B; remark: listed apart in the source
Description: (§2) Compound was tested for its inhibitory effect on MAO-B ( Monoamine Oxidase) at 100 uM

[10] = molecular target: T1, Amine oxidase [flavin-containing] A; remark: listed apart in the source
Description: (§3) Compound was tested for its inhibitory effect on MAO-A ( Monoamine Oxidase) at 100 uM

[11] = molecular target: T1, Amine oxidase [flavin-containing] A; remark: listed apart in the source
Description: Compound was tested for its inhibitory effect on Monoamine oxidase A at 15 uM

[12] = molecular target: T1, Amine oxidase [flavin-containing] A; remark: listed apart in the source
Description: Compound was tested for its inhibitory effect on Monoamine oxidase A at 8 uM

[13] = molecular target: T1, Amine oxidase [flavin-containing] A; remark: listed apart in the source
Description: Compound was tested for its inhibitory effect on Monoamine oxidase A at 20 uM)

[14] = molecular target: T2, Amine oxidase [flavin-containing] B; remark: listed apart in the source
Description: as §1

[15] = molecular target: T2, Amine oxidase [flavin-containing] B; remark: listed apart in the source
Description: as §2

[16] = molecular target: T1, Amine oxidase [flavin-containing] A; remark: listed apart in the source
Description: as §3

[17] = molecular target: T1, Amine oxidase [flavin-containing] A; remark: listed apart in the source
Description: Compound was tested for its inhibitory effect on MAO-A ( Monoamine Oxidase) at 50 uM

[18] = molecular target: T2, Amine oxidase [flavin-containing] B; remark: listed apart in the source
Description: Compound was tested for its inhibitory effect on MAO-B ( Monoamine Oxidase) at 4 uM

[19] = molecular target: T1, Amine oxidase [flavin-containing] A; remark: listed apart in the source
Description: Compound was tested for its inhibitory effect on Monoamine oxidase A at 30 uM

[20] = molecular target: T1, Amine oxidase [flavin-containing] A; remark: listed apart in the source
Description: Compound was tested for its inhibitory effect on Monoamine oxidase A at 2 uM

[21] = molecular target: T1, Amine oxidase [flavin-containing] A; remark: listed apart in the source
Description: Compound was tested for its inhibitory effect on Monoamine oxidase A at 5 uM

Row | Compound | IC50 [1] | IC50 [2] | other results
1 | c1ccc(COc2ccc3c(c2)OCC3)cc1 | 39800 nM | 501 nM | 
2 | O=c1ccc2ccccc2o1 [COUMARIN] | 40700 nM | 12000 nM | 
3 | O=C1OCc2ccc(OCc3ccccc3)cc21 | 3630 nM | 234 nM | 
4 | c1ccc(COc2ccc3ccoc3c2)cc1 |  | 1820 nM | inhibition at 50 µM [3]: 30%
5 | Cc1c(C)c2ccc(OCc3ccc(F)c(O)c3)cc2oc1=O | 115 nM | 7.41 nM | 
6 | O=c1cc(-c2ccccc2)oc2cc(OCc3ccccc3)ccc12 |  |  | inhibition at 1 µM [4]: 6%; inhibition at 1 µM [5]: 6%
7 | Cc1c(-c2ccccc2)c(=O)oc2cc(OCc3ccccc3)ccc12 |  |  | inhibition at 3 µM [6]: 8%; inhibition at 3 µM [7]: 4%
8 | O=c1cc(C(F)(F)F)c2ccc(OCc3ccccc3)cc2o1 |  | 1380 nM | 
9 | Cc1ccc(S(=O)(=O)Nc2ccc3c(C)c(C)c(=O)oc3c2)cc1 | 67600 nM |  | inhibition at 40 µM [8]: 29%
10 | O=C1CCc2ccc(OCc3ccccc3)cc2N1 | 102000 nM | 1050 nM | 
11 | O=c1ccc2cc(OCc3ccccc3)c(O)cc2o1 | 23400 nM | 2040 nM | 
12 | O=c1ccoc2ccc(OCc3ccccc3)cc12 | 6760 nM | 562 nM | 
13 | O=c1ccc2cc(O[C@@H]3O[C@H](CO)[C@@H](O)[C@H](O)[C@H]3O)c(O)cc2o1 [ESCULIN] |  |  | inhibition at 100 µM [9]: 7%; inhibition at 100 µM [10]: 9%
14 | O=c1cc(O)c2ccc(OCc3ccccc3)cc2o1 |  | 1580 nM | inhibition at 15 µM [11]: 26%
15 | c1ccc(COc2ccc3ccccc3c2)cc1 |  | 2570 nM | inhibition at 8 µM [12]: 0%
16 | CC(=O)Nc1cccc(COc2ccc3c(C)c(C)c(=O)oc3c2)c1 | 7080 nM |  | 
17 | O=c1oc2cc(OCc3ccccc3)ccc2s1 |  | 58900 nM | inhibition at 20 µM [13]: 0%
18 | O=c1cc(-c2ccccc2)oc2ccc(OCc3ccccc3)cc12 |  |  | inhibition at 3 µM [14]: 38%
19 | Cc1c(C)c2ccc(OCc3cccc(N)c3)cc2oc1=O | 1000 nM | 34.7 nM | 
20 | O=c1ccc2cc(O[C@H]3O[C@H](CO)[C@@H](O)[C@@H](O)[C@@H]3O)c(OCc3ccccc3)cc2o1 |  |  | inhibition at 100 µM [15]: 11%; inhibition at 100 µM [16]: 15%
21 | Cc1c(C)c2ccc(OC(C)c3ccccc3)cc2oc1=O (centres undefined) | 3550 nM | 324 nM | 
22 | Cc1c(C)c2ccc(/C=C/c3ccccc3)cc2oc1=O | 407 nM | 28.2 nM | 
23 | COc1cc2ccc(=O)oc2cc1OCc1ccccc1 |  | 6760 nM | inhibition at 50 µM [17]: 18%
24 | Cc1c(C)c2ccc(OCCc3ccccc3)cc2oc1=O | 1000 nM |  | 
25 | O=C1CCc2ccc(OCc3ccccc3)cc2O1 |  |  | inhibition at 4 µM [18]: 20%
26 | Cc1cc(=O)c2cc(OCc3ccccc3)ccc2o1 | 21900 nM | 126 nM | 
27 | c1ccc(COc2ccc3c(c2)OCO3)cc1 |  | 2400 nM | inhibition at 30 µM [19]: 18%
28 | CC1C(=O)Nc2cc(OCc3ccccc3)ccc2C1C (centres undefined) |  | 631 nM | inhibition at 2 µM [20]: 0%
29 | O=c1ccoc2cc(OCc3ccccc3)ccc12 | 16200 nM | 1050 nM | 
30 | O=C1NC(=O)c2cc(OCc3ccccc3)ccc21 |  |  | inhibition at 5 µM [21]: 25%
